Experiments:
Type in all cases: cell-based
[1] = tested on: Wnt activity (Sp5-Luc reporter, SW480 colon carcinoma cells); test: Screening assay for Wnt activity: Sp5-Luc reporter gene assay in SW480 cells; settings: Homo sapiens, 42 h incubation, luminescence
Outline: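 IC50 values come from variable-slope four-parameter fits of luciferase signal normalized to DMSO wells. Stable Sp5-Luc reporter SW480 colon carcinoma cells were exposed to compounds in a 3-fold dilution series (source plates from 10 mM stock) for forty-two hours at 37 °C.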

ARPE-19 cells = test: Transdifferentiation of ARPE-19 cells into eye neuronal cells (PAX6 staining); settings: Homo sapiens, 40 hours, PAX6 antibody staining
Method: The above synthesized compounds were screened using ARPE-19 cells [a spontaneously arising retinal pigment epithelia (RPE) cell line] to determine their ability to transdifferentiate ARPE-19 into eye neuronal cells [photoreceptors].
ARPE-19 cells are cultured in standard culture medium containing Dulbecco's Modified Eagle's Medium and Ham's F12 Nutrient Mixture (DMEM/F12) mix (1:1)+GlutaMax with 1% penicillin-Streptomycin and 10% FBS (Fetal Bovine Serum). Cells are incubated at 37° C. with 5% CO2. Cells are trypsinized and plated onto 384-well pre-spotted plate at a density of 3000 cells/well in 50 uL of media. Plating media:DMEM/F12 (1:1)+3% charcoal filtered-FBS+GlutaMax+1% pen/Strep. Cells are incubated at 37° C. with 5% CO2. At 40 hours, cells were fixed for 15 min with 10% Buffered Formalin. Cells were then washed 3 times with PBS for 5 min each, permeablize using 0.3% Triton X-100 in 1×PBS for 30 min, block for 1 h with 2% BSA in 1×PBS with 0.1% Triton X-100. The primary antibody (1:100 PAX6 Santa Cruz Biotech; sc-81649) was diluted and 10 μL/well was added to the cells. The cells were incubated overnight at 4° C. The plates were washed 3× with PBS before applying the secondary antibody (goat Anti-mouse 488), shake for 1 h in complete darkness, aspirate secondary, add 10 μL of DAPI (diamidino-2-phenylindole) (1 μg/mL), shake for 10 min. Wash 3× in PBS and scan on Thermo Fisher Scientific cell-Insight CX5. Readings were normalized to DMSO only treated cells, and normalized activities were utilized for EC50 calculations using the dose-response log (activator) vs. response-variable slope (four parameters) nonlinear regression feature available in GraphPad Prism 5.0 or 6.0.

[2] = tested on: primary human fibroblasts derived from IPF patients (LL29 cells); test: Inhibition of fibrosis: TGF-β1-treated primary human fibroblasts from IPF patients (LL29), αSMA staining; settings: Fibroblast, 96 h, TGF-β1 20 ng/mL, 4 days, % αSMA-positive cells
Outline: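 […] (0.1% DMSO) on LL29 cells in F12 with 1% FBS, with TGF-β1 (20 ng/mL) added 1 h after plating; 4 days at 37 °C. SYTOX-positive dead cells were excluded and the % αSMA-positive cells was imaged, normalized to TGF-β1/DMSO wells, triplicates; EC50 by non-linear regression.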

Compound | IC50 [1] [µM] | EC50 (ARPE-19 cells) [µM] | EC50 [2] [µM]
CN1CCN(c2nccc3[nH]c(-c4n[nH]c5ccc(-c6cnn(C7CC7)c6)cc45)nc23)CC1 [Compound 2284, 2-(5-(1-Cyclopropyl-1H-pyrazol-4-yl)-1H-indazol-3-yl)-4-(4-methylpiperazin-1-yl)-1H-imidazo[4,5-c]pyridine] | 0.09 | 0.006 | 
Cn1cc(-c2ccc3[nH]nc(-c4nc5c(N6CCOCC6)nccc5[nH]4)c3c2)cn1 [Compound 2280, 4-(2-(5-(1-Methyl-1H-pyrazol-4-yl)-1H-indazol-3-yl)-1H-imidazo[4,5-c]pyridin-4-yl)morpholine] | 0.015 | 0.002 | 
Fc1cncc(-c2ccc3[nH]nc(-c4nc5c(N6CCOCC6)nccc5[nH]4)c3c2)c1 [Compound 2275, 4-(2-(5-(5-Fluoropyridin-3-yl)-1H-indazol-3-yl)-1H-imidazo[4,5-c]pyridin-4-yl)morpholine] | 0.08 | 0.0434 | 
CN1CCN(c2nccc3[nH]c(-c4n[nH]c5ccc(-c6cnn(C)c6)cc45)nc23)CC1 [Compound 1916, 2-(5-(1-Methyl-1H-pyrazol-4-yl)-1H-indazol-3-yl)-4-(4-methylpiperazin-1-yl)-1H-imidazo[4,5-c]pyridine] | 0.065 | 0.0037 | 
Fc1cccc(-c2nccc3[nH]c(-c4n[nH]c5ccc(C6=CCNCC6)cc45)nc23)c1 [Compound 1770, 4-(3-Fluorophenyl)-2-(5-(1,2,3,6-tetrahydropyridin-4-yl)-1H-indazol-3-yl)-1H-imidazo[4,5-c]pyridine] | 0.658 |  | 9.99
CN(C)c1cncc(-c2ccc3[nH]nc(-c4nc5c(-c6cccs6)nccc5[nH]4)c3c2)c1 [Compound 293, N,N-Dimethyl-5-(3-(4-(thiophen-2-yl)-1H-imidazo[4,5-c]pyridin-2-yl)-1H-indazol-5-yl)pyridin-3-amine] | 0.009 |  | 0.036
CCC(=O)Nc1cncc(-c2ccc3[nH]nc(-c4nc5c(N6CCCCC6)nccc5[nH]4)c3c2)c1 [Compound 157, N-(5-(3-(4-(Piperidin-1-yl)-1H-imidazo[4,5-c]pyridin-2-yl)-1H-indazol-5-yl)pyridin-3-yl)propionamide] | 0.183 |  | 0.071

More lines, main results first:

IC50 [1] [µM] | EC50 (ARPE-19 cells) [µM] | Compound | EC50 [2] [µM]
0.01 |  | CCC(=O)Nc1cncc(-c2ccc3[nH]nc(-c4nc5c(-c6cccs6)nccc5[nH]4)c3c2)c1 [Compound 287, N-(5-(3-(4-(Thiophen-2-yl)-1H-imidazo[4,5-c]pyridin-2-yl)-1H-indazol-5-yl)pyridin-3-yl)propionamide] | 0.062
< 0.001 |  | CC(=O)c1ccc(-c2nccc3[nH]c(-c4n[nH]c5ccc(-c6cccnc6)cc45)nc23)s1 [Compound 368, 1-(5-(2-(5-(Pyridin-3-yl)-1H-indazol-3-yl)-1H-imidazo[4,5-c]pyridin-4-yl)thiophen-2-yl)ethan-1-one] | 0.014
0.02 |  | CC(C)(C)CC(=O)Nc1cncc(-c2ccc3[nH]nc(-c4nc5c(-c6ccccc6F)nccc5[nH]4)c3c2)c1 [Compound 68, N-(5-(3-(4-(2-Fluorophenyl)-1H-imidazo[4,5-c]pyridin-2-yl)-1H-indazol-5-yl)pyridin-3-yl)-3,3-dimethylbutanamide] | 0.009
0.0447 |  | CC(C)CC(=O)Nc1cncc(-c2ccc3[nH]nc(-c4nc5c(-c6ccc(F)s6)nccc5[nH]4)c3c2)c1 [Compound 314, N-(5-(3-(4-(5-Fluorothiophen-2-yl)-1H-imidazo[4,5-c]pyridin-2-yl)-1H-indazol-5-yl)pyridin-3-yl)-3-methylbutanamide] | 0.665
